In article PMC3755010 (Bioorganic & medicinal chemistry letters, 2012):
Blank lines part the entries; values can stand above or below the compound they belong to.

Tests used:
[1] = biological target: rat mGlu5 receptor (Rattus norvegicus, UniProt P31424); assay: Calcium mobilization assay in HEK293 cells expressing the rat mGlu5 receptor; format: cell-based; conditions: for loss in functional activity versus 6: relative to 6 (VU0357121); for improvement in potency versus 8b: relative to 8b; for EC50 (nM): calcium mobilization, HEK293 cells expressing rat mGlu5
[2] = biological target: T1, mGlu5 MPEP allosteric binding site (Rattus norvegicus, UniProt P31424); assay: [3H]methoxyPEPy binding
[3] = In vitro oxidative metabolism; format: in vitro ADME, rat
[4] = biological target: human mGlu5 receptor (Homo sapiens, UniProt P41594); assay: Functional assay in lower expressing human mGlu5 receptor cell line; format: cell-based
[5] = biological target: wild-type rat mGlu5 receptor (Rattus norvegicus, UniProt P31424); assay: Fold-shift of glutamate concentration-response curve at wild-type receptor; format: cell-based; conditions: 1 μM compound
[6] = test system: mGlu5 MPEP site sensitive mutants (P654F, T780A, A809V); assay: Fold-shift of glutamate CRC at MPEP site sensitive point mutants; format: cell-based; conditions: 1 μM compound, compared to wild-type rat mGlu5
[7] = Non-crossover in vivo pharmacokinetic studies in rats; set-up: species or system rat
[8] = Reversal of amphetamine-induced hyperlocomotion in rats; format: in vivo, rat; conditions: rat, brain (unbound), po, 100 mg/kg
[9] = test system: amphetamine-induced hyperlocomotion; assay: as above; format: in vivo, rat; conditions: rats, 100 mg/kg p.o., vehicle 20% β-CD
[10] = biological target: T1, mGlu5 MPEP allosteric binding site; conditions: cited from earlier work

T1 sequence (P31424 21-1203): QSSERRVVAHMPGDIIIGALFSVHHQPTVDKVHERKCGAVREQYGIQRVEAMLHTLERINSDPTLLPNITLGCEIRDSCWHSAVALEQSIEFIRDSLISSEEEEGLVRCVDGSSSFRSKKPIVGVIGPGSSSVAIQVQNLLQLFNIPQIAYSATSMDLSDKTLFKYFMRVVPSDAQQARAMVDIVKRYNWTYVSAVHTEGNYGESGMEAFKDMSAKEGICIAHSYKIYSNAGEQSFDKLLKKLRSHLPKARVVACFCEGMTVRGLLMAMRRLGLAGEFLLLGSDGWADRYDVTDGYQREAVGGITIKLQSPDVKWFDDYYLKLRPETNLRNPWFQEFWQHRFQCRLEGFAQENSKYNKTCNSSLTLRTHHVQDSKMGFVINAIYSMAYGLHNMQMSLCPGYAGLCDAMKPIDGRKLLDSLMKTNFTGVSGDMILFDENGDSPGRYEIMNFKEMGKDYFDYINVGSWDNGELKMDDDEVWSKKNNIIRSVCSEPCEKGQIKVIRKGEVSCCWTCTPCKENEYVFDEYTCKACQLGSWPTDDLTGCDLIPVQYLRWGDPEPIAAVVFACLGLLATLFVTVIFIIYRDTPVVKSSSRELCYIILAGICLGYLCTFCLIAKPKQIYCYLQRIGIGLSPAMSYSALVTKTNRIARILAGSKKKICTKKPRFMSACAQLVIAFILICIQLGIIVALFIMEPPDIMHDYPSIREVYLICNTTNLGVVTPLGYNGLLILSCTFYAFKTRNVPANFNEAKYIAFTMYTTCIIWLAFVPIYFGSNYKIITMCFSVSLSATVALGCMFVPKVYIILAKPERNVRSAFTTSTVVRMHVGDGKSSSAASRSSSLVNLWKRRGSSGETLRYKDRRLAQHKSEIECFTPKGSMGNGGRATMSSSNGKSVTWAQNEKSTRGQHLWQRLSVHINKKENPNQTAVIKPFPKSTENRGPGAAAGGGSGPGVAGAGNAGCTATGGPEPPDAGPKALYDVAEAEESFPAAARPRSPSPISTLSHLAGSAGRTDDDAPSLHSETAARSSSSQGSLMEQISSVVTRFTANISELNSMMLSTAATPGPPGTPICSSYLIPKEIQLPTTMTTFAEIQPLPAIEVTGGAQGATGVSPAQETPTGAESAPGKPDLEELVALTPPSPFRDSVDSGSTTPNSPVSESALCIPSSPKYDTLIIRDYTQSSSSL
rat mGlu5 receptor, sequence (P31424 21-1203): as above
human mGlu5 receptor, sequence (P41594 21-1212): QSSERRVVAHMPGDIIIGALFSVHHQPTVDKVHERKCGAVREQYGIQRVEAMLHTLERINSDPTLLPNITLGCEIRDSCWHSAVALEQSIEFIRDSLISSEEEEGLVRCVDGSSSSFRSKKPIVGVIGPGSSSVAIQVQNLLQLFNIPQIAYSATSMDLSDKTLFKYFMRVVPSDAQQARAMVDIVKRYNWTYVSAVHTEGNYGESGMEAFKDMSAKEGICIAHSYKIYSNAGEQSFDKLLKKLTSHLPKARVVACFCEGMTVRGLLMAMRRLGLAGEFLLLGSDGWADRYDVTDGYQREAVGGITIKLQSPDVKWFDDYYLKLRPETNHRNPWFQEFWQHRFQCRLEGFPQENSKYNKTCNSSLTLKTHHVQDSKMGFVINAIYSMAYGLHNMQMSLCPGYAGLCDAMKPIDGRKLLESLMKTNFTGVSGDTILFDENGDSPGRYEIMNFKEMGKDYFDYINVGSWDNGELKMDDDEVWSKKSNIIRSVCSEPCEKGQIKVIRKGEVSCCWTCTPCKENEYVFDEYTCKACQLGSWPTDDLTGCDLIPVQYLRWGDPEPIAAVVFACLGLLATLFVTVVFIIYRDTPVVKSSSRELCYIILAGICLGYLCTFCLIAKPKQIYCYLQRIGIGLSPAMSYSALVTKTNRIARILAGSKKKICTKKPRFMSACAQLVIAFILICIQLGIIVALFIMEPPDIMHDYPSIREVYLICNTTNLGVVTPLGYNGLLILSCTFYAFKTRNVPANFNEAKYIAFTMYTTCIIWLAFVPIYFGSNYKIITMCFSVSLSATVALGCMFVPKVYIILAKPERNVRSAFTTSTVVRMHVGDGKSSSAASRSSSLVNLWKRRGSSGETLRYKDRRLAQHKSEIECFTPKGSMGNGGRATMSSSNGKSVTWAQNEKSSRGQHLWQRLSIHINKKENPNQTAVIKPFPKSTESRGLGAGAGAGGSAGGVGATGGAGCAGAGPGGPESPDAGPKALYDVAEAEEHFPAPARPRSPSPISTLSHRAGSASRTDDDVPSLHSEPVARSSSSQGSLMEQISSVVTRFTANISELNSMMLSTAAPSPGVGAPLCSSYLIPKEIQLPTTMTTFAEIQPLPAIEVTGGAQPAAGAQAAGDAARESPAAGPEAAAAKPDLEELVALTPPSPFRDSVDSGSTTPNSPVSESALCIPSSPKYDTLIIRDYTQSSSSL
wild-type rat mGlu5 receptor, sequence (P31424 21-1203): as the sequence (P31424 21-1203) above

loss in functional activity versus 6 [1]: > 15 fold
SMILES: CCCCOc1ccc(C(=O)NC2CCCCC2)cc1 [7a]

loss in functional activity versus 6 [1]: > 15 fold
SMILES: CCCCOc1ccc(C(=O)NC2CCC2)cc1 [7c]

loss in functional activity versus 6 [1]: 22 fold
SMILES: CCCCOc1ccc(C(=O)Nc2ccc(F)cc2F)cn1 [8a]

improvement in potency versus 8b [1]: fivefold
SMILES: CCCCCOc1ccc(C(=O)NC2CCCCC2)cn1 [8d]

estimated divergence of MPEP site interaction from functional activity ([2]; 21% displacement at 10 μM versus functional EC50): > 100 fold | oxidative metabolism in rat microsomal incubations ([3]; soft-spot analysis, rat microsomes): extensive oxidative metabolism
SMILES: O=C(NC1CCCCC1)c1ccc(OCc2ccccc2)nc1 [8k]

loss in activity relative to 8k ([1]; relative to 8k): sevenfold
SMILES: O=C(NC1CCCCC1)c1ccc(OCc2ccc(F)cc2)nc1 [8m]

metabolic stability in vitro ([3]; data not shown): relatively stable metabolically in vitro
SMILES: O=C(N[C@@H](C1CC1)C(F)(F)F)c1ccc(OCc2cccc(F)c2)nc1 [8u]

Continued, compound first:

SMILES: CCCOc1ccc(C(=O)NC2CCCCC2)cn1 [8e]
EC50 (nM) [1]: complete loss of potentiation

SMILES: CCCC(C)Oc1ccc(C(=O)NC2CCCCC2)cn1 (stereo not shown) [8f]
EC50 (nM) [1]: unproductive

SMILES: CCC(C)COc1ccc(C(=O)NC2CCCCC2)cn1 (stereo not shown) [8g]
improvement in potency versus 8b [1]: twofold

SMILES: C[C@@H](NC(=O)c1ccc(OCc2cccc(F)c2)nc1)C(C)(C)C [8v]
increase in activity over cyclohexyl analog R-8t ([1]; high expressing rat receptor HEK cell line): twofold | displacement of the MPEP-site radioligand [3H]-methoxyPEPy (extent) [2]: full displacement | agonism activity for compound alone [4]: no detected agonism activity | shift of the glutamate CRC [5]: fivefold | effect of MPEP-site point mutations on shift of the glutamate CRC [6]: reduced the ability | clearance ([7]; rat, plasma, iv, 1 mg/kg): 13.7 mL/min/kg | first-pass effect (Ehep) ([7]; rats, snapshot oral PK, portal vein vs plasma): 0.41 | concentration at 90 min [8]: ~74 nM | reversal of amphetamine-induced hyperlocomotion [9]: robust effects in reversal of hyperlocomotion

SMILES: C[C@@H](NC(=O)c1ccc(OCc2cccc(F)c2)cc1)C(C)(C)C [8w]
EC50 relative to 8v ([1]; direct comparator to 8v): ~ 2.5 fold

SMILES: CCCCOc1ccc(C(=O)Nc2ccc(F)cc2F)cc1 [compound 6]
displacement of the MPEP-site ligand [3H]methoxyPEPy [10]: not observed to displace
